Test results as given in patent publication US11161819B2, “Substituted tetrahydroisoquinoline compounds useful as GPR120 agonists” (Merck Sharp & Dohme Corp., priority 2016, dated 2021).

Target: T1, human GPR120 (Homo sapiens, UniProt Q5NUL3)
T1 construct: expressed in transfected cells
T1 sequence (Q5NUL3 1-361): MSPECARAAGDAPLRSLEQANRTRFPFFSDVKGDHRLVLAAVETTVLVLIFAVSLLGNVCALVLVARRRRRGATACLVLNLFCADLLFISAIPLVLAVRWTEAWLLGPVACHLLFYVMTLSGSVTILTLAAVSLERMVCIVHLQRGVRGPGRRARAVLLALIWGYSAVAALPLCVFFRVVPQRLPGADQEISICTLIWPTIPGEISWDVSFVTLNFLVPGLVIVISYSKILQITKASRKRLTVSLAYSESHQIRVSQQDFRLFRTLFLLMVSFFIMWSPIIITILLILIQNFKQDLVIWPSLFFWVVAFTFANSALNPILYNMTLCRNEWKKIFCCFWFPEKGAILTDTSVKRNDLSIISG
Assay: Human GPR120 IP1 Assay (inositol phosphate turnover, CisBio IP-One kit)
Type: cell-based
Conditions: IP1 accumulation in CHO-K1 cells stably expressing the short form of human GPR120; 60 min compound incubation; 4-parameter fit; read-out: hGPR120 EC50
Outline: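 CHO-K1 cells stably expressing short-form human GPR120 were stimulated with compounds for 60 minutes at 37 degrees in stimulation buffer. IP1 accumulation measured by HTRF competitive immunoassay (665/620 nm ratio) against an IP1 standard curve, normalized to a reference compound; EC50 from 4-parameter fit.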

| EC50 | SMILES |
| --- | --- |
| 223 nM | CC1c2ccc(CCC(=O)O)cc2CCN1c1cc(OC2CCC2)cc(F)c1F (stereo not shown) [Example 49, 3-{2-[5-(cyclobutyloxy)-2,3-difluorophenyl]-1-methyl-1,2,3,4-tetrahydroisoquinolin-6-yl}-propanoic acid] |
| 93 nM | Cc1ccc(-n2nc(C)c(Cl)c2N2CCc3cc(CCCCC(=O)O)ccc3C2)cc1 [Example 137, 5-{2-[4-chloro-3-methyl-1-(4-methylphenyl)-1H-pyrazol-5-yl]-1,2,3,4-tetrahydroisoquinolin-6-yl} pentanoic acid] |
| 3 nM | Cc1cnc(Oc2cc(Cl)c(F)c(N3CCc4c(ccc(CCC(=O)O)c4F)C3)c2)s1 [Example 62, 3-(2-{3-chloro-2-fluoro-5-[(5-methyl-1,3-thiazol-2-yl)oxy]phenyl}-5-fluoro-1,2,3,4-tetrahydroisoquinolin-6-yl)propanoic acid] |
| 1630 nM | O=C(O)CCc1ccc2c(c1F)CCN(c1c(-c3ccc(Cl)cc3)nsc1C(F)(F)F)C2 [Example 59, 3-(2-(3-(4-chlorophenyl)-5-(trifluoromethyl)isothiazol-4-yl)-5-fluoro-1,2,3,4-tetrahydroisoquinolin-6-yl)propanoic acid] |
| 42 nM | CO[C@H]1C[C@H](Oc2cc(F)c(F)c(N3CCc4c(ccc([C@@H]5C[C@H]5C(=O)O)c4F)C3)c2)C1 [Example 110, (1R,2R)-2-(2-{2,3-difluoro-5-[(trans-3-methoxycyclobutyl)oxy]phenyl}-5-fluoro-1,2,3,4-tetrahydroisoquinolin-6-yl)-cyclopropanecarboxylic acid] |
| 309 nM | Cc1ccc(-n2nc(C)c(Cl)c2N2CCc3c(ccc(CCC(=O)O)c3F)C2)cc1 [Example 146, 3-{2-[4-chloro-3-methyl-1-(4-methylphenyl)-1H-pyrazol-5-yl]-5-fluoro-1,2,3,4-tetrahydroisoquinolin-6-yl}propanoic acid] |
| 58 nM | CC(Cc1ccc2c(c1F)CCN(c1cc(OC(F)(F)F)cc(Cl)c1F)C2)C(=O)O (single isomer, unassigned) [Example 68, 3-{2-[3-chloro-2-fluoro-5-(trifluoromethoxy)phenyl]-5-fluoro-1,2,3,4-tetrahydroisoquinolin-6-yl}-2-methyl-propanoic acid] |
| 250 nM | O=C(O)[C@H]1C[C@@H]1c1ccc2c(c1)CCN(Cc1cc(OC(F)(F)F)ccc1F)C2 [Example 90, (1S,2S)-2-{2-[2-fluoro-5-(trifluoro-methoxy)benzyl]-1,2,3,4-tetra hydroisoquinolin-6-yl}cyclo-propane carboxylic acid] |
| 845 nM | N#Cc1ccc(OC2CCC2)cc1N1CCc2c(ccc(CCC(=O)O)c2F)C1 [Example 76, 3-{2-[2-cyano-5-(cyclobutyloxy)-phenyl]-5-fluoro-1,2,3,4-tetrahydro-isoquinolin-6-yl}propanoic acid] |
| 273 nM | N#Cc1c(F)cc(OC(F)(F)F)cc1N1CCc2c(ccc([C@H]3C[C@@H]3C(=O)O)c2F)C1 [Example 119, (1S,2S)-2-{2-[2-cyano-3-fluoro-5-(trifluoromethoxy)phenyl]-5-fluoro-1,2,3,4-tetrahydroisoquinolin-6-yl}cyclopropane-carboxylic acid] |
| 35 nM | Cc1ccc(-n2nc(C)c(C#N)c2N2CCc3cc(CCCCC(=O)O)ccc3C2)cc1 [Example 127, 5-(2-(4-cyano-3-methyl-1-(p-tolyl)-1H-pyrazol-5-yl)-1,2,3,4-tetrahydro-isoquinolin-6-yl)pentanoic acid] |
| 41 nM | Cc1ccc(-n2nc(C)c(C#N)c2N2CCc3cc(CCCCC(=O)O)ccc3C2)cc1 [Example 134, 5-{2-[4-cyano-3-methyl-1-(4-methyl-phenyl)-1H-pyrazol-5-yl]-1,2,3,4-tetrahydroisoquinolin-6-yl}pentanoic acid] |
| 182 nM | COc1cc(F)c(N2CCc3cc(CCC(=O)O)ccc3C2)cc1OC1CCC1 [Example 31, 3-{2-[5-(cyclobutyloxy)-2-fluoro-4-methoxyphenyl]-1,2,3,4-tetrahydroisoquinolin-6-yl}-propanoic acid] |
| 56 nM | Cc1ccc(-n2nc(C)c(Cl)c2N2CCc3cc(CCC(=O)O)ccc3C2)cc1 [Example 22, 3-{2-[4-chloro-3-methyl-1-(4-methylphenyl)-1H-pyrazol-5-yl]-1,2,3,4-tetrahydroisoquinolin-6-yl} propanoic acid] |
| 100 nM | C[C@H]1C[C@H](Oc2cc(F)c(F)c(N3CCc4cc([C@H]5C[C@@H]5C(=O)O)ccc4C3)c2)C1 [Example 98, (1S,2S)-2-(2-{2,3-difluoro-5-[(trans-3-methylcyclobutyl)oxy]phenyl}-1,2,3,4-tetrahydroiso-quinolin-6-yl)-cyclopropane-carboxylic acid] |
| 233 nM | CC1c2ccc(CCC(=O)O)cc2CCN1c1cc(OC2CCC2)cc(F)c1F (stereo not shown) [Example 32, 3-{2-[5-(cyclobutyloxy)-2,3-difluorophenyl]-1-methyl-1,2,3,4-tetrahydroisoquinolin-6-yl}-propanoic acid] |
| 59 nM | O=C(O)[C@@H]1C[C@H]1c1ccc2c(c1F)CCN(c1cc(OC(F)(F)F)ccc1F)C2 [Example 113] |
| 19 nM | N#Cc1ccc(OC(F)(F)F)cc1N1CCc2c(ccc(CCC(=O)O)c2F)C1 [Example 78, 3-{2-[2-cyano-5-(trifluoromethoxy)phenyl]-5-fluoro-1,2,3,4-tetrahydro-isoquinolin-6-yl}propanoic acid] |
| 299 nM | O=C(O)[C@H]1C[C@@H]1c1ccc2c(c1F)CCN(c1cc(OC(F)(F)F)cc(Cl)c1F)C2 [Example 120, (1S,2S)-2-{2-[3-chloro-2-fluoro-5-(trifluoromethoxy)phenyl]-5-fluoro-1,2,3,4-tetrahydroisoquinolin-6-yl}cyclopropane-carboxylic acid] |
| 596 nM | CO[C@H]1C[C@H](Oc2ccc(C#N)c(N3CCc4cc(CCC(=O)O)ccc4C3)c2)C1 [Example 48, 3-(2-{2-cyano-5-[(trans-3-methoxy-cyclobutyl)oxy]phenyl}-1,2,3,4-tetrahydroisoquinolin-6-yl)-propanoic acid] |
| 14 nM | O=C(O)CCc1ccc2c(c1)CCN(c1cc(OC3CCC3)cc(C(F)F)c1F)C2 [Example 10, 3-{2-[5-(cyclobutyloxy)-3-(difluoromethyl)-2-fluorophenyl]-1,2-3,4-tetrahydroisoquinolin-6-yl}-propanoic acid] |
| 51 nM | COc1cc(F)c(N2CCc3cc(CCC(=O)O)ccc3C2)cc1Oc1ncc(C)s1 [Example 21, 3-(2-{2-fluoro-4-methoxy-5-[(5-methyl-1,3-thiazol-2-yl)oxy]phenyl}-1,2,3,4-tetrahydroiso-quinolin-6-yl)propanoic acid] |
| 17 nM | N#Cc1c(F)cc(OC2CCC2)cc1N1CCc2c(ccc(CCC(=O)O)c2F)C1 [Example 155, 3-{2-[2-cyano-5-(cyclobutyloxy)-3-fluorophenyl]-5-fluoro-1,2,3,4-tetrahydroisoquinolin-6-yl}-propanoic acid] |
| 824 nM | O=C(O)[C@H]1C[C@@H]1c1ccc2c(c1F)CCN(c1cc(OC(F)(F)F)cc(F)c1Cl)C2 [Example 124, (1S,2S)-2-{2-[2-chloro-3-fluoro-5-(trifluoromethoxy)phenyl]-5-fluoro-1,2,3,4-tetrahydro-isoquinolin-6-yl}cyclopropane-carboxylic acid] |
| 41 nM | CO[C@H]1C[C@H](Oc2cc(F)c(F)c(N3CCc4c(ccc(CCC(=O)O)c4F)C3)c2)C1 [Example 66, 3-(2-{2,3-difluoro-5-[(trans-3-methoxycyclobutyl)oxy]phenyl}-5-fluoro-1,2,3,4-tetrahydroisoquino-lin-6-yl)-propanoic acid] |
| 24 nM | N#Cc1cc(OC2CCC2)cc(N2CCc3cc(CCC(=O)O)ccc3C2)c1F [Example 12, 3-{2-[3-cyano-5-(cyclobutyloxy)-2-fluorophenyl]-1,2,3,4-tetra-hydroisoquinolin-6-yl}propanoic acid] |
| 192 nM | O=C(O)CCc1ccc2c(c1)CCN(c1cc(Oc3cnccn3)ccc1F)C2 [Example 33, 3-{2-[2-fluoro-5-(pyrazin-2-yloxy)phenyl]-1,2,3,4-tetrahydroiso-quinolin-6-yl}propanoic acid] |
| 29 nM | CO[C@H]1C[C@H](Oc2cc(F)c(F)c(N3CCc4cc(CCC(=O)O)ccc4C3)c2)C1 [Example 20, 3-(2-{2,3-difluoro-5-[(trans-3-methoxycyclobutyl)oxy]phenyl}-1,2,3,4-tetrahydroisoquinolin-6-yl)propanoic acid] |

| SMILES | EC50 |
| --- | --- |
| C[C@H]1C[C@H](Oc2cc(F)c(F)c(N3CCc4c(ccc([C@H]5C[C@@H]5C(=O)O)c4F)C3)c2)C1 [Example 108, (1S,2S)-2-(2-(2,3-difluoro-5-((1r,3S)-3-methylcyclobutoxy)phenyl)-5-fluoro-1,2,3,4-tetra-hydroisoquinolin-6-yl)cyclopropanecarboxylic acid] | 122 nM |
| O=C(O)CCc1ccc2c(c1)CCN(c1nc(OC3CCC3)ccc1F)C2 [Example 5, 3-(2-(6-cyclobutoxy-3-fluoropyridin-2-yl)-1,2,3,4-tetrahydro-isoquinolin-6-yl)-propanoic acid] | 65 nM |
| O=C(O)CCc1ccc2c(c1F)CCN(c1cc(OC3CCC3)ccc1F)C2 [Example 61, 3-(2-(5-cyclobutoxy-2-fluorophenyl)-5-fluoro-1,2,3,4-tetrahydro-isoquinolin-6-yl)-propanoic acid] | 28 nM |
